ChEMBL document CHEMBL1131718, “Syntheses of (+/-)-shinflavanone and its structural analogues as potent inhibitors of bone resorption pits formation” (Bioorg Med Chem Lett, 1999)
≈ marks a conversion by molar mass, not a printed value.

Experiments:
Assay type in all cases: functional
[1] = Cytotoxicity of compound was measured on osteoclastic cells.
[2] = Ability to inhibit the resorption pits formation by osteoclast-like cell(OCL) induced by 1-alpha,25-dihydroxy vitamin D3.
[3] = Ability to inhibit the resorption pits formation by osteoclast-like cell(OCL) induced by 1-alpha,25-dihydroxy vitamin D3 at conc. 0.37 ug/ml.
[4] = Ability to inhibit the resorption pits formation by osteoclast-like cell(OCL) induced by 1-alpha,25-dihydroxy vitamin D3 at conc. 1.11 ug/ml.
[5] = Ability to inhibit the resorption pits formation by osteoclast-like cell(OCL) induced by 1-alpha,25-dihydroxy vitamin D3 at conc. 10.00 ug/ml.
[6] = Ability to inhibit the resorption pits formation by osteoclast-like cell(OCL) induced by 1-alpha,25-dihydroxy vitamin D3 at conc. 3.33 ug/ml.
[7] = Bone resorption pits formation by osteoclast-like cell(OCL) induced by 1-alpha,25-dihydroxy vitamin D3 at 0.37 ug/ml concentration
[8] = Bone resorption pits formation by osteoclast-like cell(OCL) induced by 1-alpha,25-dihydroxy vitamin D3 at 1.11 ug/ml concentration
[9] = Bone resorption pits formation by osteoclast-like cell(OCL) induced by 1-alpha,25-dihydroxy vitamin D3 at 10 ug/ml concentration
[10] = Bone resorption pits formation by osteoclast-like cell(OCL) induced by 1-alpha,25-dihydroxy vitamin D3 at 3.33 ug/ml concentration

Question: For CC(C)=CCc1cc(C2CC(=O)c3cc(CC=C(C)C)c(O)cc3O2)ccc1O (centres undefined), which CC50 [1] is on record?
Answer: The CC50 was 18.2 µg/mL (≈ 46.4 µM).

Question: What about the IC50 [2] of the same compound?
Answer: The IC50 was 5.7 µg/mL (≈ 14.5 µM).

Question: And the inhibition at 0.37 µg/mL [3]?
Answer: Its inhibition at 0.37 µg/mL is 21.7%.

Question: What about the inhibition at 1.11 µg/mL [4] of the same compound?
Answer: Its inhibition at 1.11 µg/mL is 41.2%.

Question: What about the inhibition at 10 µg/mL [5] of the same compound?
Answer: The inhibition at 10 µg/mL was 84.2%.

Question: And the inhibition at 3.33 µg/mL [6]?
Answer: The inhibition at 3.33 µg/mL was 41.3%.

Question: And the No. of pits [7]?
Answer: The No. of pits was 112.

Question: What about the No. of pits [8] of the same compound?
Answer: Its No. of pits is 87.

Question: What about the No. of pits [9] of the same compound?
Answer: Its No. of pits is 23.

Question: What about the No. of pits [10] of the same compound?
Answer: The No. of pits was 84.

Question: Which CC50 [1] does the source give for CC(C)=CCc1cc(C2CC(=O)c3ccc4c(c3O2)C=CC(C)(C)O4)ccc1O (centres undefined) here?
Answer: The CC50 was 16.8 µg/mL (≈ 43 µM).

Question: What about the IC50 [2] of the same compound?
Answer: Its IC50 is 0.7 µg/mL (≈ 1.79 µM).

Question: What about the inhibition at 0.37 µg/mL [3] of the same compound?
Answer: Its inhibition at 0.37 µg/mL is 48.3%.

Question: What about the inhibition at 1.11 µg/mL [4] of the same compound?
Answer: Its inhibition at 1.11 µg/mL is 54.1%.

Question: And the inhibition at 10 µg/mL [5]?
Answer: The inhibition at 10 µg/mL was 78.1%.

Question: What about the inhibition at 3.33 µg/mL [6] of the same compound?
Answer: The inhibition at 3.33 µg/mL was 62.2%.

Question: What about the No. of pits [7] of the same compound?
Answer: The No. of pits was 74.

Question: And the No. of pits [8]?
Answer: The No. of pits was 68.

Question: And the No. of pits [9]?
Answer: Its No. of pits is 32.

Question: What about the No. of pits [10] of the same compound?
Answer: The No. of pits was 54.

Question: With CC(C)=CCc1cc(C2CC(=O)c3cc(CC=C(C)C)c(O)c(CC=C(C)C)c3O2)ccc1O (centres undefined) as the compound, how does the CC50 [1] read?
Answer: Its CC50 is 10.4 µg/mL (≈ 22.6 µM).

Question: And the IC50 [2]?
Answer: The IC50 was 10.9 µg/mL (≈ 23.7 µM).

Question: What about the inhibition at 0.37 µg/mL [3] of the same compound?
Answer: The inhibition at 0.37 µg/mL was < 5%.

Question: And the inhibition at 1.11 µg/mL [4]?
Answer: Its inhibition at 1.11 µg/mL is 18.9%.

Question: And the inhibition at 10 µg/mL [5]?
Answer: Its inhibition at 10 µg/mL is 45.2%.

Question: And the inhibition at 3.33 µg/mL [6]?
Answer: Its inhibition at 3.33 µg/mL is 24.4%.

Question: What about the No. of pits [7] of the same compound?
Answer: The No. of pits was 150.

Question: What about the No. of pits [8] of the same compound?
Answer: Its No. of pits is 120.

Question: And the No. of pits [9]?
Answer: The No. of pits was 80.

Question: And the No. of pits [10]?
Answer: Its No. of pits is 108.

Question: What does the source list for CO[C@H]1[C@@H](OC)C[C@H](C)[C@@H](OC)C2=CC(=O)C=C(NC(=O)/C(C)=C/C=C/[C@H](OC)[C@@H](OC(N)=O)/C(C)=C/[C@@H]1C)C2=O [HERBIMYCIN]?
Answer: CC50 [1]: 1.72 µg/mL (≈ 2.99 µM); IC50 [2]: 1.1 µg/mL (≈ 1.91 µM); inhibition at 0.37 µg/mL [3]: 37.8%; inhibition at 1.11 µg/mL [4]: 50.7%
